In patent US7205408B2, “Quinolines and nitrogenated derivative thereof substituted in 4-position by a piperidine-containing moiety and their use as antibacterial agents” (priority 1920, dated 2007):
Counter-ions that a name gives are not always drawn. Like-named read-outs stand apart in the source and are kept apart here.

Assay: MIC of test compounds against various organisms
Format: cell-based, S. aureus, S. pneumoniae, H. influenzae, E.faecalis
Experimental: The MIC (μg/ml) of test compounds against various organisms was determined: S. aureus Oxford, S. aureus WCUH29, S. pneumoniae 1629, S. pneumoniae N1387, S. pneumoniae ERY 2, H. influenzae Q1, E.faecalis 1.

[1] = against one or more of S. aureus Oxford, S. aureus WCUH29, S. pneumoniae 1629, S. pneumoniae N1387, S. pneumoniae ERY 2, H. influenzae Q1, E.faecalis 1 (gram positive and gram negative bacteria), read-out: MIC

SMILES | MIC [µg/mL] | MIC [1] [µg/mL]
COc1ccc2nccc([C@@H](O)CN3CCC(NCc4ccc5c(c4)NC(=O)C(C)S5)CC3)c2c1 (mixture of isomers) [Example 21, 6-({1-[(R)-2-Hydroxy-2-(6-methoxy-quinolin-4-yl)-ethyl)-piperidin-4-ylamino}-methyl)-2-(R/S)-methyl-4H-benzo[1,4]thiazin-3-one dioxalate] | ≤ 2 | 
COc1ccc2nccc([C@@H](O)CN3CCC(NCc4cc5c(cc4[N+](=O)[O-])OCO5)CC3)c2c1.O=C(O)C(=O)O.O=C(O)C(=O)O [Example 18, (R)-1-(6-Methoxy-quinolin-4-yl)-2-{4-[(6-nitro-benzo[1,3]dioxol-5-ylmethyl)-amino]-piperidin-1-yl}-ethanol dioxalate] |  | ≤ 0.125
COc1ccc2nccc([C@@H](O)CN3CCC(NS(=O)(=O)c4ccc5c(c4)NC(=O)CCS5)CC3)c2n1 [Example 17, 4-Oxo-2,3,4,5-tetrahydro-benzo[b][1,4]thiazepine-7-sulfonic acid {1-[(R)-2-hydroxy-2-(6-methoxy-[1,5]naphthyridin-4-yl)-ethyl]-piperidin-4-yl}-amide oxalate] | ≤ 2 | 
COc1ccc2nccc([C@@H](O)CN3CCC(NCc4ccc5c(c4)NC(=O)CO5)CC3)c2c1 [Example 5, 6-({1-[(R)-2-Hydroxy-2-(6-methoxy-quinolin-4-yl)-ethyl]-piperidin-4-ylamino}-methyl)-4H-benzo[1,4]oxazin-3-one dioxalate] | ≤ 2 | 
COc1ccc2nccc([C@@H](O)CN3CCC(NCc4cnc5c(c4)NC(=O)CS5)CC3)c2c1 [Example 20, 7-({1-[(R)-2-Hydroxy-2-(6-methoxy-quinolin-4-yl)-ethyl]-piperidin-4-ylamino}-methyl)-1-H-pyrido[2,3-b][1,4]thiazin-2-one dioxalate] |  | ≤ 2
COc1ccc2nccc([C@@H](O)CN3CCC(NCc4ccc5c(n4)OCCO5)CC3)c2c1 [Example 19, (R)-2-{4-[(2,3-Dihydro-[1,4]dioxino[2,3-b]pyridin-6-ylmethyl)-amino]-piperidin-1-yl}-1-(6-methoxy-quinolin-4-yl)-ethanol dioxalate] | ≤ 0.125 | 
COc1ccc2nccc([C@@H](O)CN3CCC(NCc4ccc5c(c4)NC(=O)CS5)CC3)c2n1 [Example 16, 6-({1-[(R)-2-Hydroxy-2-(6-methoxy-[1,5]naphthyridin-4-yl)-ethyl]-piperidin-4-ylamino}-methyl)-4H-benzo[1,4]thiazin-3-one dioxalate] | ≤ 0.125 | 
